For assay [1], the system named is C. parvum. Kind of assay: High content imaging assay, C. parvum infected HCT-8 cells. To be noted: Cryptosporidium parvum, percentage of infected HCT-8 cells, 48 hours treatment, read-out: Cp HCl IC50. The format is cell-based. On the procedure: (§1) Human ileocecal colorectal adenocarcinoma cells (HCT-8 [HRT-18] ATCC, CCL-34) were maintained in T-175 flasks (Corning, 431080) in complete growth medium (RPMI-1640 medium (Gibco, 11875) supplemented with 10% heat-inactivated horse serum (Gibco, 26050), 1×MEM non-essential amino acids (Gibco, 11140), 10 mM HEPES (Gibco, 15630), 100 units/mL penicillin, and 100 units/mL streptomycin) at 37° C. and 5% CO2 in a humidified incubator. Cultures were passaged twice weekly using 10 mL of 1×Phosphate-Buffered Saline (PBS) without Ca^2+ and Mg^2+ (Gibco, 20012) for washing and 3-5 mL per T-175 flask of TrypLE Express Enzyme (Gibco, 12604) for dissociation of adherent cells.
Cryptosporidium parvum oocysts purchased from the Sterling Laboratory, University of Arizona (Iowa isolate) were purified from infected calf feces using discontinuous sucrose and cesium chloride centrifugation gradients and stored in PBS solution containing 0.01% Tween 20, 100 units/mL penicillin and 100 units/mL gentamicin.
(§2) Excystation and infection protocols were developed following established methods with some modifications (Gut & Nelson, 1999, Upton et aL, 1995, Bessoff et aL, 2013). Briefly, oocysts were primed in 1 mL of 10 mM hydrochloric acid in 1× Hank's Balanced Salt Solution (HBSS) (Gibco, 14025) for 10 minutes with agitation at 1000 rpm, 37° C. on an Eppendorf thermomixer, then washed twice with 1 mL of room temperature non-acidic 1× HBSS by centrifugation at 13,000 rpm for 3 minutes at 25° C. Primed oocysts were further excysted at a concentration of 1×10^6 oocysts/μL in parasite infection medium consisting of a pre-warmed and pre-gassed 1:1 formulation of Leibovitz's L-15 medium (Gibco, 11415) and UltraCULTURE medium (Lonza, 12-725F) supplemented with 2 mM sodium taurocholate (Sigma, 86339-1), 10% heat-inactivated horse serum, and 200 μM L-ascorbic acid (Sigma, 95210) at 25° C. for 10 minutes. HCT-8 monolayer cells were infected with excysted cryptosporidium at a specified multiplicity of infection (MOI). All dilutions for subsequent assays were performed in parasite infection medium without sodium taurocholate. Pre-excysted oocysts were enumerated microscopically using a C-Chip disposable hemocytometer (NanoEnTek, DHC-N01).
(§3) Compound powders were dissolved in neat DMSO (Fisher, D4121) to 10 mM and stored at 4° C. prior to dilution into source plates. Dilutions were carried out using a Microlab STAR liquid handler (Hamilton) to obtain compound source plates containing the ten-point or eight-point three fold dilutions starting from 10 mM in duplicates. Source plates were stored at 4° C. prior to spotting into assay plates. Before administration, all compound source plates were equilibrated to room temperature. A specified volume of compounds from source plate were spotted to assay plate using an Echo Acoustic liquid handler (LABCYTE, 550) so that the final DMSO concentration was less than 0.5%. Each assay plate a specified number of DMSO-treated negative control wells and a well-studied potent active compound at 100 nM as positive control. As a quality control, all positive and negative-control wells were used to calculate a Z′-value and signal to noise ratio (S:N) for each plate.
Imaging assays were developed following established Cryptosporidium spp labeling and in vitro infection models with some modifications (Bessoff et aL, 2013, Gut & Nelson, 1999). Briefly, 2×10^4 HCT-8 cells per well were seeded into 384-well, flat black clear-bottom OPERA assay plates (Greiner, 789071-G) at 20 μL per well in complete growth medium using a Multidrop Combi liquid handler (ThermoScientific, 5840300) and standard tube dispensing cassette (ThermoScientific, 24072670) and incubated for 24 hours at 37° C. The HCT-8 cells were infected with 10 μL per well of 1×10^4 excysted C. parvum oocysts (host to parasite MOI of 1:0.5) or 10 μL per well of 4×10^4 excysted C. hominis oocysts (MOI 1:2) in parasite infection medium using the Multidrop and incubated at 37° C. […]

In assay [2] the test system is Cryptosporidium parvum. Kind of assay: Cytopathic effect (CPE) based assay, C. parvum infected HCT-8 cells. To be noted: HCT-8 host cell viability (CellTiter-Glo), 48 hours treatment, read-out: Cp CPE EC50. The method, boiled down:
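HCT-8 cells were batch-infected with excysted C. parvum (Iowa isolate) oocysts at MOI 1:2 (host:parasite) for 3 h at 37 °C, then seeded and incubated 24 h before compound addition. Compounds were given as 3-fold dilution series (final DMSO <0.5%). Host-cell loss (cytopathic effect) was read as viability with CellTiter-Glo.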
(Cytopathic effects are the visible damage that an infection or toxin causes in cultured cells.)

Assay [3] relates to Cryptosporidium hominis. Kind of assay: Cytopathic effect (CPE) based assay, C. hominis infected HCT-8 cells. As to conditions: HCT-8 host cell viability (CellTiter-Glo), 48 hours treatment, read-out: Ch CPE EC50. As for the experimental part:
as §1
Cryptosporidium hominis oocysts were purchased from the Tufts University Cummings School of Veterinary Medicine (courtesy of Dr. Saul Tzipori). C. hominis oocysts were purified from infected gnotobiotic piglet feces and stored in PBS solution containing 0.01% Tween-20, 100 units/mL penicillin and 100 units/mL gentamicin. C. parvum and C. hominis oocysts less than three months old from the date of shedding were used in infection experiments.
as §2, §3
Cryptosporidium spp are obligate-intracellular parasites that infect intestinal epithelial cells and the host cell is killed upon parasite egress. […] The loss of epithelial cells is due to both rapid parasite invasion/multiplication/egress and also pro-inflammatory immune response (Adams et al., 1994, Griffiths et al., 1994). We have observed a consistent cytopathic effect (CPE) in HCT-8 cells with C. spp infection the loss of viability of the host cells using CellTiter-Glo reagent.
Confluent HCT-8 cells in T-175 flasks were directly infected with excysted oocysts at an MOI (host to parasite) of 1:2 for C. parvum and 1:4 for C. hominis. […]

A value given as a limit tells only on which side of the number the result lay.

As usually defined, the IC50 is the concentration needed to halve the response being measured. A word on the EC50: it is the midpoint of the concentration-response curve.

On to `CCN(C(=O)c1ccn2ncc(-c3ccc(C(=O)NC)cc3)c2c1)c1ccc(C#N)cn1` [Example 90], for which the concentration for half-maximal inhibition (IC50) in assay [1] was determined as 52 nM. Further, the EC50 in assay [2] stood at 68 nM.
Take `CNC(=O)c1ccc(-c2cnn3ccc(C(=O)N(c4ccc(C#N)cn4)C(C)C)cc23)cc1` [Example 91]: the values for the EC50 in assay [3] and in assay [2] were 139 nM and 129 nM, respectively.
Consider `CNC(=O)c1ccc(-c2cnn3ccc(C(=O)N(NC)c4ccc(C#N)cc4)cc23)cn1` [Example 92], for which the IC50 in assay [1] is 94 nM. The EC50 in assay [2] amounted to 310 nM.
For the compound `CNC(=O)c1ccc(-c2cnn3ccc(N(C)C(=O)c4ccc(C#N)cn4)cc23)cc1` [Example 94], the IC50 in assay [1] is 123 nM. For the same compound, the figures for the EC50 in assay [3] and in assay [2] were 456 nM and 368 nM, respectively.
For `CCN(C(=O)c1ccn2ncc(-c3ccc(C(=O)NC)cc3)c2c1)c1ccc(C(F)(F)F)cn1` [Example 96], the IC50 in assay [1] was 24 nM. Besides, the EC50 in assay [2] turned out to be 50 nM.
For the compound `CNC(=O)c1ccc(-c2cnn3ccc(C(=O)N(c4ccc(C#N)cn4)C4CCC4)cc23)cc1` [Example 112], the EC50 in assay [3] turned out to be 351 nM; in assay [2] it was 270 nM.
For `N#Cc1ccc(N(C(=O)c2ccn3ncc(-c4ccc(C(N)=O)cc4)c3c2)C2CC2)nc1` [Example 120] the same measures were 276 nM and 172 nM.
For `CC(C)NC(=O)c1ccc(-c2cnn3ccc(C(=O)N(c4ccc(C#N)cn4)C4CC4)cc23)cc1` [Example 121] the same measures were above 20000 nM and 8640 nM.
The like results for `N#Cc1ccc(N(C(=O)c2ccn3ncc(-c4ccc(C(=O)NC5CC5)cc4)c3c2)C2CC2)nc1` [Example 123] were, in that order, 3150 nM and 2990 nM.
As to `CNC(=O)c1ccc(-c2cnn3ccc(C(=O)N(c4ccc(Cl)cn4)C4CC4)cc23)cc1` [Example 124], the IC50 in assay [1] came to 60 nM. In addition, in assay [2], the EC50 was 103 nM.
For `CCNC(=O)c1ccc(-c2cnn3ccc(C(=O)N(c4ccc(C#N)cn4)C4CC4)cc23)cc1` [Example 127], the IC50 in assay [1] stood at 62 nM. Moreover, the EC50 came out at 71 nM in assay [3] and 102 nM in assay [2].
`N#Cc1ccc(N(C(=O)c2ccn3ncc(-c4ccc(C(=O)NC5COC5)cc4)c3c2)C2CC2)nc1` [Example 131]: the EC50 in assay [3] amounted to 4110 nM; in assay [2], 2730 nM.
Regarding `CNC(=O)c1ccc(-c2cnn3ccc(C(=O)N(c4ccc(C#N)c(OC)n4)C4CC4)cc23)cc1` [Example 149], the IC50 in assay [1] is 32 nM. Also, the EC50 in assay [2] was 55 nM.
Take `CCN(C(=O)c1ccn2ncc(-c3ccc(C(=O)NC)nc3)c2c1)c1ccc(C#N)cn1` [Example 150]: the IC50 in assay [1] was determined as 382 nM. Further, the EC50 in assay [2] is 1070 nM.
Regarding `CNC(=O)c1ccc(-c2cnn3ccc(C(=O)N(c4ccc(C(F)(F)F)cn4)C(C)C)cc23)cc1` [Example 153], the IC50 in assay [1] turned out to be 11 nM. The values for the EC50 in assay [3] and in assay [2] were 70 nM and 39 nM, respectively.
In the case of `CNC(=O)c1ccc(-c2cnn3ccc(C(=O)N(c4ccc(C(F)(F)F)cn4)C4CCC4)cc23)cc1` [Example 160], in assay [1], the IC50 was found to be 29 nM. Also, in assay [2], the EC50 is 85 nM.

These data come from patent US20190030009A1, “COMPOUNDS AND COMPOSITIONS FOR THE TREATMENT OF CRYPTOSPORIDIOSIS” (Novartis AG, priority 2016, published 2019).
